Source: US20120065365A1, “Stable Radiopharmaceutical Compositions and Methods for Their Preparation” (BRACCO IMAGING S.P.A., priority 2003, published 2012)
Structures can show the parent of a compound that is named as a salt. Where two headings read alike, the source gives them in different places. Values belong to the compound of their own block, whether it stands above or below them.

What was measured:
[1] = type: physicochemical; settings: for RCP % t = 0 h: ^177Lu-A (5.28 mCi avg) prepared in presence of stabilizer 3.33 mg/mL; for RCP (%) t = 72 h: ^177Lu-A prepared and stored in presence of stabilizer 3.33 mg/mL, room temperature
Procedure: 10 mg/mL solutions of thiamine hydrochloride and L-glutathione were prepared by disserving them in water. 10 mg/mL solutions of 3-hydroxycinnamic acid, 4-hydroxyantipyrine and acetylsalicylic acid were prepared by dissolving them in 50% EtOH/water. 10 mg/mL solutions of 2-hydroxybenzothiazole and 2,1,3-benzothiadiazole were prepared by dissolving them in EtOH.

[2] = type: physicochemical; settings: ^177Lu-A (2.7-3.7 mCi) prepared in presence of 1 mg/mL stabilizer; for RCP % t = 24 h (frozen): 24 h frozen (−10° C.)
Procedure: The injection volume was 10 μL.
Each individual stabilizer was prepared at a concentration of 1 mg/mL in sodium acetate (NaOAc) buffer (0.2 M, pH 4.8). […] The reaction mixture was heated to 100° C. for 5 minutes, and then cooled for 5 minutes in an ambient-temperature water hath. To each sample, 10 μL of 2% Na2EDTA.2H2in water was added, and then each was divided into two 100-μL aliquots. One aliquot was analyzed by HPLC (Method 5) and then stored at room temperature in a sealed lead container for 24 hours. The other aliquot was stored frozen (−10° C.) for 24 hours. Each sample was analyzed at t=24 h.

[3] = type: physicochemical; settings: for Replicate 1 RCP % t = 0 h: ^177Lu-A (3.55 mCi avg) prepared in presence of 5 mg/mL stabilizer, HPLC Method 1, t = 0 h; for Replicate 2 RCP % t = 0 h / Replicate 2 RCP % t = 24 h: ^177Lu-A (4.37 mCi avg) prepared in presence of 5 mg/mL stabilizer; for Replicate 2 RCP % t = 0 h: HPLC Method 2, t = 0 h; for Replicate 2 RCP % t = 24 h: HPLC Method 2, t = 24 h
Procedure: (§1) The injection volume was 20 μL.
Each stabilizer was prepared at a concentration of 5 mg/mL in sodium acetate (NaOAc) buffer (0.2 M, pH 4.8). To lead-shielded 4-mL vials were added 200 μL of the individual stabilizer solutions, 3.55 mCi ^177LuCl3 (avg) and 5.44 μg COMPOUND A (dissolved in water). A second set of replicates of each sample was prepared, using the individual stabilizers. To these was added 4.37 mCi ^177LuCl3 (avg) and 6.7 μg (avg) COMPOUND A (dissolved in water). The ratio of COMPOUND A to lutetium was 3:1 for all samples. The reaction mixture was heated to 100° C. for 5 minutes then cooled for 5 minutes in an ambient-temperature water bath. To each sample, 10 μL of 2% Na2EDTA.2H2O in water was added, then each was analyzed by HPLC (Method 1 for the first set of replicates; Method 2 for the second set of replicates). The second set of replicates were stored and analyzed again at t=24 h.

[4] = type: physicochemical; settings: ^177Lu-A (3.6 mCi) prepared in presence of 2.5 mg/mL stabilizer
Procedure: To lead-shielded 4-mL vials was added 200 μL of the individual NaOAc-stabilizer solutions, 3.58 mCi ^177LuCl3 (avg) and 5.08 μg COMPOUND A (dissolved in water). The ratio of COMPOUND A to Lutetium was 3:1 for all samples. The reaction mixtures were heated to 100° C. for 5 minutes, then cooled, treated with Na2EDTA.2H2O, subdivided and stored as described in Example 9. The radiochemical purity (RCP) percentage data obtained are listed Table 12.

[5] = type: physicochemical
Procedure: The reaction vial was crimp-sealed and heated at 100° C. for 5 min. […] The sample was stored in an autosampler in which the temperature is ˜6° C. […] than room temperature, and analyzed by RP-HPLC for up to 24 hours.
L-Selenomethionine: ^177Lu-B was prepared, diluted and analyzed as described above, but 5 mg of L-Se-Met was used in place of PDTC, the heating time was 10 minutes, and the quantity of radioactivity used was 52 mCi.
L-cysteine ethyl ester, HCl: ^177Lu-B was prepared, diluted and analyzed as described above, but 5 mg of L-CEE, hydrochloride salt was used in place of PDTC, the heating time was 5 minutes and the quantity of radioactivity used was 50 mCi.
L-cysteine HCl.H2O: ^177Lu-B was prepared, diluted and analyzed as described above, but 5 mg of L-Cys HCl.H2O was used in place of PDTC, the heating time was 8 minutes and the quantity of radioactivity used was 53 mCi.

[6] = Radiostability (RCP, Met═O by HPLC) of preformed ^177Lu-A with individual amino acids added (Example 1); type: physicochemical; settings: amino acid 6.6 mg/mL, room temperature; for 0-1 h RCP (%): ^177Lu-A ~20 mCi/mL (3.5 mCi total); for 24-h RCP (%) / 48-h RCP (%): ^177Lu-A ~20 mCi/mL
Procedure: as §1
Solutions of the individual amino acids L-Methionine, L-Selenomethionine, L-cysteine HCl.H2O, L-Tryptophan, L-Histidine, and Glycine were prepared at a concentration of 10 mg/mL in 10 mM Dulbecco's phosphate-buffered saline, pH 7.0 [PBS].
The final radioactive concentration of each sample was ˜20 mCi/mL.

[7] = type: physicochemical; settings: for RCP % t = 0 h: ^177Lu-A (5.25 mCi avg) prepared in presence of stabilizer ~3.33 mg/mL
Procedure: as §1
Ethionamide was prepared at a 10 mg/mL concentration by dissolving it in EtOH. […] Another sample was prepared to which was added 100 μL of ethanol only (no stabilizer), for use as a control sample. […] The reaction mixture was heated to 100° C. for 5 minutes then cooled for 5 minutes in an ambient-temperature water bath. To each sample, 10 μL of 2% Na2EDTA.2H2O in water was added, and then each was analysed by HPLC (Method 2) and stored at room temperature for up to 96 hours.

[8] = type: physicochemical; settings: ^177Lu-A 13.9 mCi/mL, stabilizer 5 mg/mL added after complex preparation, room temperature
Procedure: as §1
Compounds containing the —C═S moiety [dithiocarbamates and ethionamide] were examined in this study.
Each individual stabilizer was prepared at a concentration of 10 mg/mL in water. Ethionamide was dissolved in EtOH. […] The reaction mixture was heated to 100° C. for 5 minutes, then cooled for 5 minutes in an ambient-temperature water bath. […] To an aliquot, 100 μL of one of the stabilizer solutions (1 mg of stabilizer) was added. Each aliquot was analyzed (t=0 h) by HPLC (Method 2) and stored at room temperature for 48 hours. All samples were analyzed again at t=24 h and 48 h.

[9] = ^177Lu-A prepared in presence of stabilizer ~3.33 mg/mL, room temperature

SMILES: O=C(O)/C=C/c1cccc(O)c1 [3-Hydroxycinnamic acid]
RCP % t = 0 h [1]: 96.6%
RCP (%) t = 72 h [1]: 0%

SMILES: CSCC[C@@H](N)C(=O)O [D-Methionine]
RCP % t = 24 h (frozen) [2]: 100%
RCP % t = 24 h (room temp) [2]: 100%
RCP % t = 0 h [2]: 100%
Replicate 1 RCP % t = 0 h [3]: 100%
Replicate 2 RCP % t = 0 h [3]: 97.6%
Replicate 2 RCP % t = 24 h [3]: 80.7%
RCP % t = 24 h (frozen) [4]: 100%
RCP % t = 24 h (room temp) [4]: 99.6%
RCP % t = 0 h [4]: 100%

SMILES: CC(=O)Oc1ccccc1C(=O)O [Acetylsalicylic acid, Acetylsalicyclic acid, reference compound]
RCP % t = 0 h [1]: 73.0%
RCP (%) t = 72 h [1]: 0%

SMILES: Oc1nc2ccccc2s1 [2-Hydroxybenzothiazole]
RCP % t = 0 h [1]: 96.2%
RCP (%) t = 72 h [1]: 9.6%

SMILES: c1ccc2nsnc2c1 [2,1,3-Benzothiadiazole]
RCP % t = 0 h [1]: 98.6%
RCP (%) t = 72 h [1]: 3.1%

SMILES: S=c1[nH]c(=S)[nH]c(=S)[nH]1 [Trithiocyanuric acid trisodium salt nonahydrate]
RCP % t = 0 h [7]: 100%
RCP % t = 24 h [7, 9]: 100%
RCP % t = 96 h ([7]; ^177Lu-A prepared in presence of stabilizer ~3.33 mg/mL, room temperature, 96 h): 0%
RCP % t = 0 h [8]: 96.9%
RCP % t = 24 h [8]: 95.9%
RCP % t = 48 h [8]: 100%

SMILES: O=C1O[C@H]([C@@H](O)CO)C([O-])=C1O.[Na+] [Ascorbic acid, Sodium L-ascorbate (Ascorbic acid)]
RCP % t = 0 h [2]: 98.7%
Replicate 1 RCP % t = 0 h [3]: 87.6%
Replicate 2 RCP % t = 0 h [3]: 30.2%
Replicate 2 RCP % t = 24 h [3]: 24.5%
RCP % t = 24 h (frozen) [4]: 78.4%
RCP % t = 24 h (room temp) [4]: 88.1%

SMILES: Cc1c(O)c(=O)n(-c2ccccc2)n1C [4-Hydroxyantipyrine]
RCP % t = 0 h [1]: 99.9%
RCP (%) t = 72 h [1]: 0%

Results, then the compound that gave them:

RCP % t = 24 h (frozen) [2]: 84.3%
RCP % t = 24 h (room temp) [2]: 64.9%
RCP % t = 0 h [2]: 100%
Replicate 1 RCP % t = 0 h [3]: 93.9%
Replicate 2 RCP % t = 0 h [3]: 96.6%
Replicate 2 RCP % t = 24 h [3]: 75.2%
RCP % t = 24 h (frozen) [4]: 82.8%
RCP % t = 24 h (room temp) [4]: 78.6%
RCP % t = 0 h [4]: 100%
SMILES: O=C([O-])c1cc(O)ccc1O.[Na+] [Gentisic acid, 2,5-Dihydroxybenzoic acid sodium salt hydrate (Gentisic acid)]

(% RCP) 3-h ([5]; ^177Lu-B (44-53 mCi) formulated with 5 mg stabilizing compound, 3 h): 94.7%
(% RCP) 6-h ([5]; ^177Lu-B (44-53 mCi) formulated with 5 mg stabilizing compound, 6 h): 87.3%
(% RCP) 9-h ([5]; ^177Lu-B (44-53 mCi) formulated with 5 mg stabilizing compound, 9 h): 79.4%
(% RCP) 12-h ([5]; ^177Lu-B (44-53 mCi) formulated with 5 mg stabilizing compound, 12 h): 73.6%
(% RCP) 24-h ([5]; ^177Lu-B (44-53 mCi) formulated with 5 mg stabilizing compound, 24 h): 50.9%
(% RCP) 0-h ([5]; ^177Lu-B (44-53 mCi) formulated with 5 mg stabilizing compound, diluted to ~2 mL, ~6° C. above room temperature, 0 h): 99.1%
RCP Drop over 24 hr ([5]; ^177Lu-B formulated with 5 mg stabilizing compound, 0 to 24 h): 48.2%
RCP % t = 24 h (frozen) [2]: 82.1%
RCP % t = 24 h (room temp) [2]: 83.3%
RCP % t = 0 h [2]: 100%
Replicate 1 RCP % t = 0 h [3]: 93.3%
Replicate 2 RCP % t = 0 h [3]: 91.0%
Replicate 2 RCP % t = 24 h [3]: 67.4%
RCP % t = 24 h (frozen) [4]: 51.0%
RCP % t = 24 h (room temp) [4]: 88.3%
RCP % t = 0 h [4]: 100%
SMILES: N[C@@H](CS)C(=O)O [L-cysteine, L-cysteine hydrochloride monohydrate]

0-1 h RCP (%) [6]: 92.5%
24-h RCP (%) [6]: 4.6%
48-h RCP (%) [6]: 0%
SMILES: N[C@@H](Cc1c[nH]cn1)C(=O)O [Histidine, L-Histidine]

RCP % t = 0 h [1]: 97.0%
RCP (%) t = 72 h [1]: 0%
SMILES: Cc1ncc(C[n+]2csc(CCO)c2C)c(N)n1 [Thiamine hydrochloride, reference compound]

RCP % t = 0 h [7]: 52.8%
RCP % t = 24 h [7, 9]: 0%
RCP % t = 0 h [8]: 97.8%
RCP % t = 24 h [8]: 97.1%
RCP % t = 48 h [8]: 96.2%
SMILES: CCN(CC)C(=S)S [Sodium diethyldithiocarbamate trihydrate, Diethyldithiocarbamate sodium salt]

0-1 h RCP (%) [6]: 95.5%
24-h RCP (%) [6]: 51.4%
48-h RCP (%) [6]: 18.2%
SMILES: N[C@@H](Cc1c[nH]c2ccccc12)C(=O)O [Tryptophan, L-Tryptophan]

RCP % t = 0 h [1]: 91.1%
RCP (%) t = 72 h [1]: 0%
SMILES: N[C@@H](CCC(=O)N[C@@H](CS)C(=O)NCC(=O)O)C(=O)O [L-Glutathione, L-Glutathione, reduced]

0-1 h RCP (%) [6]: 96.4%
24-h RCP (%) [6]: 14.6%
48-h RCP (%) [6]: 0%
SMILES: NCC(=O)O [Glycine]
